Test results: US20210355104A1, “ADENOSINE RECEPTOR BINDING COMPOUNDS” (Nikang Therapeuticsm Inc., priority 2018, published 2021)
Where “and” joins values, the source holds several entries; their conditions need not be identical. Equal entries are not always repeated. Where two headings read alike, the source gives them in different places.

Columns and labels:
[1] = molecular target: T1, Adenosine A2A receptor (Homo sapiens, UniProt P29274); assay: cAMP assay in 293A cells stably expressing the adenosine A2A receptor (CGS21680 stimulation, HTRF); format: cell-based; parameters: expressed in transfected cells; host or cells: 293A cells (Invitrogen, Cat# R705-07) infected with A2A-expressing lentivirus (custom packaged by Biosettia), puromycin selected; conditions: 0.1% BSA
[2] = test system: p-CREB (phosphorylated cAMP response-element binding protein) in human whole blood; assay: p-CREB assay in human whole blood by flow cytometry (NECA stimulation, CD4 staining); format: cell-based
Method: Assay protocol for p-CREB (phosphorylated cAMP response-element binding protein) in human whole blood by flow cytometry
Fresh human whole blood (Biological Specialty Corporation) was added at 100 ul per wellinto a 96-well plate and treated with test compounds (Serial dilutions of 1:3 with starting concentration at 30 uM, 11 concentrations total, in the presence of adenosine deaminase) for one hour at room temperature on a plate shaker. Then 10 ul of 10× NECA (50 uM stock in PBS) and 10 ul of 10 × Rolipram (50 uM stock in PBS) were added, with designated wells for unstimulated (Rolipram+DMSO) and stimulated (Rolipram+NECA+DMSO) conditions. The plates were mixed well and incubated at room temperature for 30 min on a plate shaker. 1× lyse/Fix buffer (5× stock, BD #558049) was warmed to 37° in a water bath. 1200 ul of pre-warmed 1× lyse/Fix buffer was then added to the plate, which was then sealed and mixed by inverting the plate a few times. The plate was then incubated for 30 min at 37° in a water bath. After incubation, the plate was centrifuged at 1600 rpm for 5 min and the supernatant was decanted, then 1200 ul PBS was added and the plate was mixed by inverting a few times followed by centrifuging at 1600 rpm for 5 min and again decanting the supernatant. Then, 200 ul FIX PERM buffer II (BD #558052) was added and the plate was mixed well, then kept on ice for 45 min After spinning the plate at 1600 rpm for 5 min the supernatant was again decanted. Then was added 200 ul staining buffer (BD #554657), and the plate was mixed well and spun at 1600 rpm for 5 min, then the supernatant was again decanted. 200 ul staining buffer was added, the plate was mixed well and the plate was sealed at this step for storage at 4° overnight or until staining. Before staining, the plate was spun at 1600 rpm for 5 min and the supernatant was again decanted. Antibody mix in staining buffer was prepared (75 ul/well, 1:50 dilution for p-CREB antibody from Cell Signaling Tech #14001S, 1:200 dilution for CD4 antibody from BD #566320) and the cells were resuspended in the above antibody mix solution. After mixing well, the plate was incubated (shielded from light) at room temperature for two hours on a plate shaker. It was then spun at 1600 rpm for 5 min and the supernatant was decanted. 200 ul staining buffer was then added to wash cells, and the plate was then mixed by shaking or pipetting. The wash step was repeated at least one more time, and after the final wash, cells were resusptended in 200 ul staining buffer in U bottom plate for flow cytometry analysis.

[3] = molecular target: T1, Adenosine A2A receptor; assay: Adenosine A2A receptor competitive binding assay (Tag-lite HTRF); conditions: Tag-lite adenosine A2A receptor ligand binding
How it was run: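 Tag-lite HTRF competition: donor-labelled cells expressing human A2A were mixed with serially diluted compounds (DMSO 0.6% in dilutions) and red fluorescent A2A antagonist ligand (60 nM stock). Incubated 2 h at room temperature before HTRF readout.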

[4] = 293A-A2AR cells, 1 uM CGS, read-out: cAMP (nM) 0.1% BSA, 1 uM CGS
[5] = 293A cells stably expressing A2A receptor, 1 uM CGS21680 stimulation, replicate values separated by /, read-out: cAMP (nM) 0.1% BSA, 1 uM CGS
[6] = Homo sapiens, replicate values separated by /
[7] = replicate values separated by /
[8] = 293A-A2AR cells, 8 nM CGS, values separated by / are repeat determinations, read-out: cAMP (nM) 0.1% BSA, 8 nM CGS
[9] = 293A-A2AR cells, 1 uM CGS, values separated by / are repeat determinations, read-out: cAMP (nM) 0.1% BSA, 1 uM CGS
[10] = 2 h room temperature, values separated by / are repeat determinations

T1 sequence (P29274 whole entry): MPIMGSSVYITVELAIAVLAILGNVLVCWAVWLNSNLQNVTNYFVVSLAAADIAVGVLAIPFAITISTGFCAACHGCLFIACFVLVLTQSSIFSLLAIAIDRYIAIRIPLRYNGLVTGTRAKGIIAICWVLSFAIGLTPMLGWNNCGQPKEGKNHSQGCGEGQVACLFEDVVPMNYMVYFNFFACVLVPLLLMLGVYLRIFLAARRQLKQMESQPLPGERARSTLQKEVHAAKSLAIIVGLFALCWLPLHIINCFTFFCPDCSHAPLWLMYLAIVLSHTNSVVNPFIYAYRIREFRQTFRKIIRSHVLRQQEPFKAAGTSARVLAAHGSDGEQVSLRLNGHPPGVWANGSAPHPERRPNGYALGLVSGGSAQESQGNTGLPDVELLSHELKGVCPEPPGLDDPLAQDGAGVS

| SMILES | IC50 [1, 4] | IC50 ([2]; Homo sapiens) | IC50 [1, 5] | IC50 [2, 6] | also measured |
| --- | --- | --- | --- | --- | --- |
| CCn1c(COc2nc(N)nc(-c3ccc(F)cc3)c2-c2cc(C)nc(C(F)F)c2)nc2cccnc21 [Example 329, 5-(2-(difluoromethyl)-6-methylpyridin-4-yl)-4-((3-ethyl-3H-imidazo[4,5-b]pyridin-2-yl)methoxy)-6-(4-fluorophenyl)pyrimidin-2-amine] | 87 nM and 249 nM and 153 nM | 128 nM | – | – | – |
| Cc1cc(-c2c(OCc3ccc(=O)n(C)n3)nc(N)nc2-c2ccc(F)cc2)cc(C(F)F)n1 [Example 422, 6-(((2-amino-5-(2-(difluoromethyl)-6-methylpyridin-4-yl)-6-(4-fluorophenyl)pyrimidin-4-yl)oxy)methyl)-2-methylpyridazin-3(2H)-one] | – | – | 432 nM and 338 nM | 424 nM | – |
| Cc1cc(-c2c(OCc3cccc(NC(CO)CO)n3)nc(N)nc2-c2ccc(F)cc2)cc(C(F)F)n1 [Example 442, 2-((6-(((2-amino-5-(2-(difluoromethyl)-6-methylpyridin-4-yl)-6-(4-fluorophenyl)pyrimidin-4-yl)oxy)methyl)pyridin-2-yl)amino)propane-1,3-diol] | – | – | 177 nM | 208 nM | – |
| Cc1cc(-c2c(OCc3cccc(OCCO)n3)nc(N)nc2-c2ccc(F)cc2)cc(C(F)F)n1 [Example 305] | 196 nM | 61.7 nM | – | – | – |
| CCC(CC)(C(=O)O)c1cccc(COc2nc(N)nc(-c3ccc(F)cc3)c2-c2cc(C)nc(C(F)F)c2)n1 [Example 398, 2-(6-(((2-amino-5-(2-(difluoromethyl)-6-methylpyridin-4-yl)-6-(4-fluorophenyl)pyrimidin-4-yl)oxy)methyl)pyridin-2-yl)-2-ethylbutanoic acid] | – | – | 20 nM and 70 nM and 68 nM and 141 nM | 43.6 nM | IC50 [2, 7]: 26.2 nM |
| Cc1cc(-c2c(OCc3cccc(C(C)(C)C(=O)O)n3)nc(N)nc2-c2ccc(F)cc2)cc(C(F)F)n1 [Example 263, 2-(6-(((2-amino-5-(2-(difluoromethyl)-6-methylpyridin-4-yl)-6-(4-fluorophenyl)pyrimidin-4-yl)oxy)methyl)pyridin-2-yl)-2-methylpropanoic acid] | 33 nM and 168 nM and 95 nM and 126 nM | 82 nM | – | – | IC50 [2]: 114 nM |
| Cc1cc(-c2c(OCc3ccnnc3)nc(N)nc2-c2ccc(F)cc2)cc(C(F)F)n1 [Example 285, 5-(2-(difluoromethyl)-6-methylpyridin-4-yl)-4-(4-fluorophenyl)-6-(pyridazin-4-ylmethoxy)pyrimidin-2-amine] | 378 nM and 272 nM | 179 nM | – | – | – |
| CCn1nccc1COc1nc(N)nc(-c2ccc(F)cc2)c1-c1cc(C)nc(C(F)F)c1 [Example 227, 5-(2-(difluoromethyl)-6-methylpyridin-4-yl)-4-((1-ethyl-1H-pyrazol-5-yl)methoxy)-6-(4-fluorophenyl)pyrimidin-2-amine] | 29 nM and 97 nM and 71 nM | 17.8 nM | – | – | – |
| Cc1cc(-c2c(OCc3cccc([C@@H]4C[C@H]4C(=O)O)n3)nc(N)nc2-c2ccc(F)cc2)cc(C(F)F)n1 (relative stereo) [Example 353, (1,2-trans)-2-(6-(((2-amino-5-(2-(difluoromethyl)-6-methylpyridin-4-yl)-6-(4-fluorophenyl)pyrimidin-4-yl)oxy)methyl)pyridin-2-yl)cyclopropane-1-carboxylic acid] | 1240 nM | 374 nM | – | – | – |
| CCN(CC)C(=O)COc1nc(N)nc(-c2ccccc2)c1-c1cc(C)nc(C(F)(F)F)c1 [Example 3, 2-((2-amino-5-(2-methyl-6-(trifluoromethyl)pyridin-4-yl)-6-phenylpyrimidin-4-yl)oxy)-N,N-diethylacetamide] | – | – | – | – | IC50 [1, 8]: 0.6 nM; IC50 [1, 9]: 69 nM and 24 nM; IC50 ([2]; Homo sapiens, values separated by / are repeat determinations): 47 nM |
| Cc1cc(-c2c(OCc3ccnc(N)n3)nc(N)nc2-c2ccc(F)cc2)cc(C(F)F)n1 [Example 413, 4-((2-aminopyrimidin-4-yl)methoxy)-5-(2-(difluoromethyl)-6-methylpyridin-4-yl)-6-(4-fluorophenyl)pyrimidin-2-amine] | – | – | 4.5 nM and 19 nM and 14 nM | 50.2 nM | IC50 [2, 7]: 40.8 nM |
| CNC(=O)NCc1cccc(COc2nc(N)nc(-c3ccc(F)cc3)c2-c2cc(C)nc(C(F)F)c2)n1 [Example 415, 1-((6-(((2-amino-5-(2-(difluoromethyl)-6-methylpyridin-4-yl)-6-(4-fluorophenyl)pyrimidin-4-yl)oxy)methyl)pyridin-2-yl)methyl)-3-methylurea] | – | – | 97 nM and 152 nM and 129 nM | 16 nM | – |
| Cc1cc(-c2c(OCc3cccc(C(C)(C)NCCO)n3)nc(N)nc2-c2ccc(F)cc2)cc(C(F)F)n1 [Example 407, 2-((2-(6-(((2-amino-5-(2-(difluoromethyl)-6-methylpyridin-4-yl)-6-(4-fluorophenyl)pyrimidin-4-yl)oxy)methyl)pyridin-2-yl)propan-2-yl)amino)ethan-1-ol] | – | – | 107 nM and 88 nM | 91.5 nM | – |
| Cc1cc(-c2c(OCc3cccc([C@@H]4C[C@@H]4C(=O)O)n3)nc(N)nc2-c2ccc(F)cc2)cc(C(F)F)n1 (relative stereo) [Example 354, (1,2-cis)-2-(6-(((2-amino-5-(2-(difluoromethyl)-6-methylpyridin-4-yl)-6-(4-fluorophenyl)pyrimidin-4-yl)oxy)methyl)pyridin-2-yl)cyclopropane-1-carboxylic acid] | 563 nM and 977 nM | 549 nM | – | – | – |
| Cc1cc(-c2c(OCc3ccn(CC(C)(C)C(=O)O)n3)nc(N)nc2-c2ccc(F)cc2)cc(C(F)F)n1 [Example 267, 3-(3-(((2-amino-5-(2-(difluoromethyl)-6-methylpyridin-4-yl)-6-(4-fluorophenyl)pyrimidin-4-yl)oxy)methyl)-1H-pyrazol-1-yl)-2,2-dimethylpropanoic acid] | – | 5580 nM | – | – | – |
| Cc1cc(-c2c(OCc3ccnc(N4CC(C)(O)C4)n3)nc(N)nc2-c2ccc(F)cc2)cc(C(F)F)n1 [Example 266, 1-(4-(((2-amino-5-(2-(difluoromethyl)-6-methylpyridin-4-yl)-6-(4-fluorophenyl)pyrimidin-4-yl)oxy)methyl)pyrimidin-2-yl)-3-methylazetidin-3-ol] | – | 4910 nM | – | – | – |
| Cc1cc(-c2c(OCc3nccn3CS(C)(=O)=O)nc(N)nc2-c2ccc(F)cc2)cc(C(F)F)n1 [Example 215, 5-(2-(difluoromethyl)-6-methylpyridin-4-yl)-4-(4-fluorophenyl)-6-((1-((methylsulfonyl)methyl)-1H-imidazol-2-yl)methoxy)pyrimidin-2-amine] | 965 nM | – | – | – | IC50 ([3]; HTRF): 0.0097 µM |
| Cc1cc(-c2c(OCCN(C)c3nccc(N)n3)nc(N)nc2-c2ccc(F)cc2)cc(C(F)F)n1 [Example 147, N^2-(2-((2-amino-5-(2-(difluoromethyl)-6-methylpyridin-4-yl)-6-(4-fluorophenyl)pyrimidin-4-yl)oxy)ethyl)-N^2-methylpyrimidine-2,4-diamine] | – | – | – | – | IC50 [1, 9]: 5460 nM; IC50 [3, 10]: 0.013 µM |
| Cc1cc(-c2c(OCC(=O)N(C)c3ccccc3)nc(N)nc2-c2ccc(F)cc2)cc(C(F)F)n1 [Example 98, 2-((2-amino-5-(2-(difluoromethyl)-6-methylpyridin-4-yl)-6-(4-fluorophenyl)pyrimidin-4-yl)oxy)-N-methyl-N-phenylacetamide] | – | – | – | – | IC50 [1, 8]: 1.2 nM; IC50 [3, 10]: 0.0059 µM |
| Cc1cc(-c2c(OC[C@H](C)O)nc(N)nc2-c2ccc(F)cc2)cc(C(F)F)n1 [Example 77, (S)-1-((2-amino-5-(2-(difluoromethyl)-6-methylpyridin-4-yl)-6-(4-fluorophenyl)pyrimidin-4-yl)oxy)propan-2-ol] | – | – | – | – | IC50 [1, 9]: 547 nM; IC50 [3, 10]: 0.0039 µM and 0.0042 µM |
